Laboratory results taken from PubChem BioAssay (NCI).
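Cells were grown in 96-well plates and exposed to each compound for 48 hours at five concentrations; endpoints were interpolated linearly between bracketing concentrations, or set to the highest concentration if not reached. GI50 marks 50% less growth. TGI: total growth inhibition.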

Experiments:
Assay in all cases: DTP human tumour cell line panel, 48 h
[1] = test system: ACHN renal
[2] = test system: SN12C renal
[3] = test system: M14 melanoma
[4] = test system: MOLT-4 leukemia
[5] = test system: T-47D breast
[6] = test system: 786-0 renal
[7] = test system: UACC-257 melanoma
[8] = test system: SR leukemia
[9] = test system: SK-MEL-2 melanoma

Compound | TGI [1] [µM] | TGI [2] [µM] | TGI [3] [µM] | TGI [4] [µM] | TGI [5] [µM] | TGI [6] [µM] | TGI [7] [µM] | TGI [8] [µM] | TGI [9] [µM] | GI50 [9] [µM] | GI50 [3] [µM] | GI50 [4] [µM] | GI50 [8] [µM]
Cc1[nH]c2nccn2c(=O)c1CCO | > 10 | > 10 | > 10 | > 10 | > 10 | > 10 | > 10 | > 10 |  |  |  |  | 
O=S(=O)(/N=C(\NO)Nc1ccc(Cl)cc1)c1cc2ccccc2s1 | 30.5 | 33 | 33.3 | 77.8 | 84.2 | 32.3 | 49.9 |  | 30.4 |  |  |  | 
N#CC1=C(N)N(/N=C/c2ccco2)C(c2ccco2)C1(C#N)C#N (stereo not given) | 30.2 | 70 | 43.6 | 30.3 | 33.2 | 33.1 | 33.2 | 39.3 | 47.4 |  |  |  | 
CC[C@]12C=CCN3CC[C@@]4(c5cc(Br)c(OC)cc5N(C)[C@H]4[C@@](O)(C(=O)NC(Cc4c[nH]c5ccccc45)C(=O)OC)[C@@H]1O)[C@@H]32 (stereo not given in full) | > 100 | > 100 | > 100 | > 100 | > 100 | > 100 |  | 34.9 | > 100 |  |  |  | 
CN(C)CCCn1c(Cn2nc3ccccc3n2)nc2cc(C(F)(F)F)ccc21 | > 100 | > 100 | 29 | 45.6 | 35.1 | 35.3 | 33.5 |  | 43.5 |  |  |  | 
COC(=O)C(=O)C(C(=O)OC)C(=O)C(=O)Nc1c(Cl)cc([N+](=O)[O-])cc1Cl (stereo not given) | > 100 | > 100 | > 100 |  | > 100 | > 100 | > 100 |  | > 100 |  |  |  | 
O=c1c2c3c(sc2nc2n1NC=NN2)CCCC3 | 30.3 | 39.6 | > 57 | 31.7 | > 65.8 | 31.9 | 41.9 |  | > 66.6 |  |  |  | 
COc1ccc(-c2nnc3n(C)c4ccccc4n3c2=O)cc1 | > 100 | > 100 | > 100 | > 100 | > 100 | > 100 | > 100 | > 100 | > 100 |  |  |  | 
Cn1c(=O)c2[nH]c(SC/C(=N/O)c3ccc(Br)cc3)nc2n(C)c1=O |  |  | > 100 | 64 |  |  |  | > 100 | 4.26 | 2.08 | 45.5 | 20.4 | 2.83
O=C(CC(C(=O)c1cccs1)c1ccsc1)c1ccc(Cl)s1 (stereo not given) | > 100 | > 100 | > 100 | > 100 | > 100 | > 100 | > 100 | > 100 | > 100 |  |  |  | 
O=S(=O)(c1ccccc1)c1ccc(-c2nc(-c3ccc4c(c3)Sc3ccccc3S4)cs2)cc1 | > 100 | > 100 | > 100 | > 100 | > 100 | 45.1 | > 100 | > 100 |  |  |  |  | 
COc1ccc2[nH]c3c(c2c1)CC(=O)N1CCC[C@H](C1)CC31OCCCO1 | > 100 | > 100 | > 100 |  | > 100 | > 100 | > 100 | > 100 | > 100 |  |  |  | 
CCOC(=O)c1nc2cc(Cl)ccc2[nH]c1=O | > 100 | > 100 | > 100 | > 100 | > 100 | > 100 | > 100 | > 100 | > 100 |  |  |  | 
Cc1cc(O)c2c(c1)C(C1c3cccc(O)c3C(=O)c3c(O)cc(C)cc31)c1cccc(O)c1C2=O (stereo not given) | 3.56 | 3.23 | 7.49 | 12.5 | 2.98 | 6.82 | 1.25 | 3.32 | 0.692 |  |  |  | 
Cn1cc2c3ccccc3nc-2c2ccccc21 | 5.81 | 4.89 | 4.4 | 2.74 | 5.87 | 11.1 | 5.85 | 2.1 | 3.52 |  |  |  | 
CCCCCCCCCCCCOC1C(COCCN2CCCCC2)OC2OC(C)(C)OC21 (stereo not given) | 4.69 | 4.72 | 2.99 | 3.74 | 4.01 | 3.11 | 3.18 |  | 3.14 |  |  |  | 
COc1ccc(C2=NNC(=O)c3ccccc3N2c2nc(-c3cccs3)nc3cc(OC)c(OC)cc23)cc1 | 13.3 | 11.1 | 20.2 | > 100 | 17.6 | 12.1 | 88.2 | > 100 | 44.2 |  |  |  | 
COc1ccccc1C(=O)OCC1CCCN2CCCCC12 (stereo not given) | > 100 | 96 |  | > 100 | 81.7 | > 100 | > 100 |  | > 100 |  |  |  | 
CCOC(=O)c1cc(C)nc2c1c(=O)n(-c1ccccc1)c(=O)n2CCCCN1CCN(c2ncccn2)CC1 | > 100 | > 100 | > 100 | > 100 | > 100 | > 100 | > 100 | > 100 | > 100 |  |  |  | 
CN(C)S(=O)(=O)c1nc(Cl)c2[nH]cnc2n1 | > 100 | > 100 | > 100 | > 100 | > 100 | > 100 | > 100 | > 100 | > 100 |  |  |  | 
Fc1ccc(C(OCCN2CCC3CCC(C2)N3C/C=C/c2cccs2)c2ccc(F)cc2)cc1 (stereo not given) | 24.1 | 18 | 14.8 | 3.14 | 15.5 | 20.8 | 15.1 |  | 24.1 |  |  |  | 
C(=N\NC1=NCCN1)/c1ccc2ccccc2c1 | 33.7 | 35.4 |  | 42.8 | > 100 | 26.3 | 29.3 | > 100 | 38 |  |  |  | 
O=C(O)c1nn(-c2ccccc2)nc1-c1nn(-c2ccccc2)nc1C(=O)O | > 100 | > 100 | > 100 | > 100 | > 100 | > 100 | > 100 | > 100 | > 100 |  |  |  | 
C(=C/c1nnnn1-c1ccccc1)/Nc1ccccc1 | > 100 | > 100 | 77.3 | > 100 | > 100 | > 100 | > 100 |  | 20.6 |  |  |  | 
